Data reported in paper PMC7229842, “Molecular basis of the multifaceted functions of human leucyl-tRNA synthetase in protein synthesis and beyond” (Nucleic Acids Research, 2020).
pIC50: −log10 of the molar value. Values belong to the compound of their own block, whether it stands above or below them.

Experiments:
[1] = target: T1, Human cytosolic leucyl-tRNA synthetase (hcLRS) (Homo sapiens, UniProt Q9P2J5); assay: X-ray co-crystal structure at […] Å (as AN6426-AMP); aminoacylation inhibition IC50; assay type: biochemical
T1 construct: gene LARS1
Target sequence in this assay (Q9P2J5 whole entry): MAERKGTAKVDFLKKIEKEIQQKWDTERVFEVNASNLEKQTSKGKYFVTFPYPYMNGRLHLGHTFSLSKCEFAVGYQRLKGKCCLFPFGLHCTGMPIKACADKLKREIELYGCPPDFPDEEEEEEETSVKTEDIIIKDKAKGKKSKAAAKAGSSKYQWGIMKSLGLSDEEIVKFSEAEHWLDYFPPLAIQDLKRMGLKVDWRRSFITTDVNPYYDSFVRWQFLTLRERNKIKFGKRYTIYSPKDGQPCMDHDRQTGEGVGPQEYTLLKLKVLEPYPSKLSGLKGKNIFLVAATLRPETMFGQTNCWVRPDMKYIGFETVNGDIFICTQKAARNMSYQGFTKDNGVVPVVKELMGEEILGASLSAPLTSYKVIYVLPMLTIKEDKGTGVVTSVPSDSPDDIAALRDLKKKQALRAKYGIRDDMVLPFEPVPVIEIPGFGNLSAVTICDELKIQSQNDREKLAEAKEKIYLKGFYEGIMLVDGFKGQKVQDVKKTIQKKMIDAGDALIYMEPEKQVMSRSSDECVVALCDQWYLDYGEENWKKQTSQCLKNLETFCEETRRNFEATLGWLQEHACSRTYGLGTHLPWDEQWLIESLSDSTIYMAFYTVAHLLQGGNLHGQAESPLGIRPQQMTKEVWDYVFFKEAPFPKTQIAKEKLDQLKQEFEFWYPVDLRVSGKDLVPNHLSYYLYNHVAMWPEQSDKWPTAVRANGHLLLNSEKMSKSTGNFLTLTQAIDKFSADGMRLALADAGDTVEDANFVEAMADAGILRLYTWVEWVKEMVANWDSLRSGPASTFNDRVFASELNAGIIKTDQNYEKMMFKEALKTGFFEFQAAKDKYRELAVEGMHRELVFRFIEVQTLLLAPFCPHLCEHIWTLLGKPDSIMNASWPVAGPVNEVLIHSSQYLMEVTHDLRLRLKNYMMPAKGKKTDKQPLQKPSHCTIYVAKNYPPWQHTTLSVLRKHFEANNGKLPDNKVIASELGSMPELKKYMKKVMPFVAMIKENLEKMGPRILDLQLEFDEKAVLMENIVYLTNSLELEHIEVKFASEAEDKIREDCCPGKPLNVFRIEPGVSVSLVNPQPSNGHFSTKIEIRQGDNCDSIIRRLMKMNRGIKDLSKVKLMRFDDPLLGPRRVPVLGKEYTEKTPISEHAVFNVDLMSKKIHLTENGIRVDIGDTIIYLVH

[2] = target: T1, Human cytosolic leucyl-tRNA synthetase (hcLRS); assay: aminoacylation assay with [3H]-Leu and tRNA^Leu(CAG), purified hcLRS; assay type: biochemical
Target sequence in this assay (Q9P2J5 whole entry): as above

[3] = target: T1, Human cytosolic leucyl-tRNA synthetase (hcLRS); assay: X-ray co-crystal structure, […] Å; assay type: binding
Target sequence in this assay (Q9P2J5 1-1070): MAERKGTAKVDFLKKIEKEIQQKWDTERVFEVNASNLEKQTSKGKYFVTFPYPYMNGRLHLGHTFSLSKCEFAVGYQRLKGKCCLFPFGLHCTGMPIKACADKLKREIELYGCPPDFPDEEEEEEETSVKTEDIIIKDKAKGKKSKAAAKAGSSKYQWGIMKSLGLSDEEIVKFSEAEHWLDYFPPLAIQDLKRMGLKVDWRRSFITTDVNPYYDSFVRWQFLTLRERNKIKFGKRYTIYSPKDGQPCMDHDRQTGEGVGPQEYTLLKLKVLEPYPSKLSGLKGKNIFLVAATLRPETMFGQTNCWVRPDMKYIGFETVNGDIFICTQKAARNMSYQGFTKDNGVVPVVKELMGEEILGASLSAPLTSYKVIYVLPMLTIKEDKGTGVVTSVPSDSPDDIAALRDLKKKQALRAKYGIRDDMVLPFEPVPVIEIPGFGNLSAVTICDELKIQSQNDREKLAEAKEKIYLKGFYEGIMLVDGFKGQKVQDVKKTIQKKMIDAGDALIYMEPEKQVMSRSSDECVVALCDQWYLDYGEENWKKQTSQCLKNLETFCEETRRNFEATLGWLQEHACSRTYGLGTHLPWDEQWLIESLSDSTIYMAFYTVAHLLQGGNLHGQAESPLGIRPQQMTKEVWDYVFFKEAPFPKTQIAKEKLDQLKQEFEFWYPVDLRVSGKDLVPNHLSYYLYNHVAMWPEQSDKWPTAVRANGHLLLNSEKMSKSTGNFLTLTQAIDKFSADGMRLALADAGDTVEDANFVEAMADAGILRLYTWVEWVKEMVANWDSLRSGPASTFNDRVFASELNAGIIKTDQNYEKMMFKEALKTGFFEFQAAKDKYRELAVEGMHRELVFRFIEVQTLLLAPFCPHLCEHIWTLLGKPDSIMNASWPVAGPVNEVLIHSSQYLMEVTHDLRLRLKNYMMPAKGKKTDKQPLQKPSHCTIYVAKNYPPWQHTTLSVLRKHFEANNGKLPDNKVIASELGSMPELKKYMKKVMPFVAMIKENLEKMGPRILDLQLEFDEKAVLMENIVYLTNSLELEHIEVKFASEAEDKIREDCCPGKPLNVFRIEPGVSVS

pIC50 [1]: 5.11
SMILES: CCOc1ccc(Cl)c2c1B(O)OC2CN (stereo not drawn) [AN6426]

pIC50 [2]: 4.83
SMILES: OB1OCc2cc(F)ccc21 [tavaborole]

SMILES: CC(C)C[C@H](N)C(=O)NS(=O)(=O)OC[C@H]1O[C@@H](n2cnc3c(N)ncnc32)[C@H](O)[C@@H]1O [LeuAMS]
X-ray co-crystal structure, 2.5 Å [3]: LeuAMS, a stable analog of LeuAMP, was bound in the aminoacylation active site in our structure
